Data on three compounds can be found in patent publication US20070213382A1, “2-METHYLTHIAZOLIDINE-2, 4-DICARBOXYLIC ACID-CONTAINING COMBINATION PREPARATIONS” (priority 2004, published 2007).

As a reminder, the IC50 is the concentration needed to halve the response being measured.

The structures appear in SMILES notation. ≈ marks a conversion by molar mass, not a printed value. Where two headings read alike, the source gives them in different places.

One data set concerns Neuroglioma cells H4. As to the kind of experiment: in vitro cytotoxicity assay, crystal violet, 72 h (Example 1). It counts as cell-based. As to conditions: human gliomas cells H4, 72 h; for cytotoxic effect: N-acetylcysteine up to comparatively high concentrations. How it is done: (§1) Examinations for the in vitro cytoxicity of 2-methylthiazolidine-2,4-dicarboxylic acid and N-acetylcysteine in human tumor cell lines were carried out.
(§2) The cells were kept in culturing medium RPMI 1640 (Sigma, Munich) and in addition 10% FCS (Sigma, Munich) in 50 ml cell culture vials (Greiner) at 37° C. as well as under a 5% of CO2 atmosphere.
(§3) Monolayers of the tumor cells were prepared by dispersion of 2×10^6 tumor cells in 96-hole-plates (Greiner). After an incubation time of 24 hours the medium was replaced by a medium containing the test compounds. All assays were carried out four times.
(§4) After 72 h the quantity of living cells was determined by means of coloring with crystal violet.
(§5) For that purpose, the medium was removed from each hole in the plate, the plates were washed twice with PBS, the cells were fixed by means of PBS, containing 1% of paraformaldehyde and dried for 15 minutes at room temperature. Subsequently, the cells were rinsed with PBS and dried at room temperature.
(§6) Thereafter, the cells were colored with 1% crystal violet solution in water for two minutes, and after washing with water the optical density was determined by means of an ELISA spectrometer at 595 nm. The average values and standard deviations for the average values were determined for all four parallel tests.

In data set [1] the test system is Bladder carcinoma cells EJ. The description is as above. Format: cell-based, human. As to conditions: for IC50: Homo sapiens. The protocol:
as §1, §2, §3, §4, §5, §6

As to `CC1(C(=O)O)NC(C(=O)O)CS1` (stereo not shown) [2-methylthiazolidine-2,4-dicarboxylic acid], in the data set on Neuroglioma cells H4, half-maximal inhibition (IC50) was put at 9.66 µg/mL (≈ 50.5 µM) and the cytotoxic effect entry is reported as “significant cytotoxic effect”. Besides, the “growth of the bladder carcinoma cell line EJ” value in data set [1] (substance alone) is “not influenced”.
Turning to `CC(=O)N[C@@H](CS)C(=O)O` [N-acetylcysteine], the cytotoxic effect result in the data set with Neuroglioma cells H4 is reported as “no effect”.
For the compound `Cn1nnc2c(C(N)=O)ncn2c1=O` [temozolomide, Temozolomide], the IC50 in data set [1] (alone, read-out: IC50 value for temozolomide alone) came out at 1050 µg/mL (≈ 5430 µM); in data set [1] (in the presence of 200 μg/ml 2-methylthiazolidine-2,4-dicarboxylic acid, read-out: IC50 value of temozolomide in the presence of 2-methylthiazolidine-2,4-dicarboxylic acid), 96.6 µg/mL; in data set [1] (in the presence of 1000 μg/ml N-acetylcysteine, read-out: IC50 value of temozolomide in the presence of N-acetylcysteine) it was 903 µg/mL.
